# According to ChEMBL document CHEMBL1146046, “Synthesis and biological evaluations of sulfanyltriazoles as novel HIV-1 non-nucleoside reverse transcriptase inhibitors” (Bioorg Med Chem Lett, 2006):
# Test system: Human immunodeficiency virus 1
# Experiment: Antiviral activity against HIV1
# Type: functional, organism-based
SMILES,EC50 [nM],IC50 [nM]
CCn1c(C)nnc1SCC(=O)Nc1ccccc1Cl,> 10000,> 10000
Cc1ccc(-n2c(C)nnc2SCC(=O)N2CCCCC2)cc1,> 10000,> 10000
Cc1ccc(-n2c(C)nnc2SC/C(S)=N/c2ccccc2Cl)cc1,> 10000,> 10000
Cc1nnc(SCC(=O)Nc2ccccc2Cl)n1Cc1ccccc1,3410,> 10000
Cc1ccc(-n2c(C)nnc2SCC(=O)Nc2ccc(Cl)cc2)cc1,1360,> 10000
COc1ccccc1-n1c(C)nnc1SCC(=O)Nc1ccccc1Cl,59,> 10000
Cc1ccc(-n2c(C)nnc2SCC(=O)Nc2ccccc2)cc1,2050,> 10000
Cc1ccc(-n2c(C)nnc2SCC(=O)Nc2ccccn2)cc1,> 10000,> 10000
Cc1ccc(-n2c(C)nnc2SCC(=O)Nc2ccccc2C)cc1,112,> 10000
Cc1ccc(NC(=O)CSc2nnc(C)n2-c2ccc(C)cc2)cc1,> 10000,> 10000
Cc1ccc(-n2c(C)nnc2SCC(=O)Nc2ccc(C#N)cc2)cc1,> 10000,> 10000
Cc1ccc(-n2c(C)nnc2SCC(=O)Nc2cccc(Br)c2)cc1,> 10000,> 10000
Cc1ccc(-n2c(C)nnc2SCC(=O)Nc2cccc(C#N)c2)cc1,> 10000,> 10000
Cc1ccc(-n2c(C)nnc2SCC(=O)Nc2cc(Cl)ccc2Cl)cc1,37,> 10000
CC(=O)N1CCN(C(=O)CSc2nnc(C)n2-c2ccc(C)cc2)CC1,> 10000,> 10000
Cc1ccc(-n2c(C)nnc2SCC(=O)Nc2ccccc2C#N)cc1,170,> 10000
Cc1ccc(-n2c(C)nnc2SCC(=O)Nc2ccc(Br)cc2)cc1,> 10000,> 10000
Cc1ccc(-n2c(C)nnc2SCC(=O)Nc2ccc([N+](=O)[O-])cc2)cc1,> 10000,> 10000
Cc1ccc(-n2c(C)nnc2SCC(=O)Nc2ccccc2F)cc1,68,> 10000
COc1cccc(NC(=O)CSc2nnc(C)n2-c2ccc(C)cc2)c1,22,> 10000
COc1ccc(NC(=O)CSc2nnc(C)n2-c2ccc(C)cc2)cc1,1840,> 10000
Cc1ccc(-n2c(C)nnc2SCC(=O)Nc2ccccc2Br)cc1,> 10000,> 10000
Cc1ccc(-n2c(COc3ccccc3)nnc2SCC(=O)Nc2ccccc2Cl)cc1,1070,> 10000
Cc1ccc(-n2c(SCC(=O)Nc3ccccc3Cl)nnc2-c2ccncc2)cc1,4210,> 10000
COc1ccccc1-c1nnc(SCC(=O)Nc2ccccc2Cl)n1-c1ccc(C)cc1,2070,> 10000

SMILES,EC50 [nM],IC50 [nM]
Cc1ccc(-n2c(C)nnc2SCC(=O)Nc2ccc3ccccc3c2)cc1,412,> 10000
CCCCCCCCCNC(=O)CSc1nnc(C)n1-c1ccc(C)cc1,> 10000,> 10000
Cc1ccc(-n2c(C)nnc2SCC(=O)NC(C)(C)C)cc1,> 10000,> 10000
COC(=O)c1cccc(NC(=O)CSc2nnc(C)n2-c2ccc(C)cc2)c1,> 10000,> 10000
Cc1ccc(-n2c(C)nnc2SCC(=O)Nc2cccc(C)c2C)cc1,128,> 10000
Cc1ccc(-n2c(C)nnc2SCC(=O)Nc2ccc(Cl)cc2C)cc1,215,> 10000
Cc1ccc(-n2c(C)nnc2SCC(=O)Nc2ccccc2C(F)(F)F)cc1,72,> 10000
Cc1ccc(-n2c(C)nnc2SCC(=O)Nc2cccc([N+](=O)[O-])c2)cc1,> 10000,> 10000
Cc1nnc(SCC(=O)Nc2ccccc2Cl)n1-c1cccc2c1OCCO2,18,> 10000
COC(=O)c1ccc(NC(=O)CSc2nnc(C)n2-c2ccc(C)cc2)cc1,822,> 10000
Cc1ccc(-n2c(SCC(=O)Nc3ccccc3Cl)nnc2-c2ccc(Cl)cc2)cc1,3780,> 10000
Cc1ccc(-n2c(Cc3ccccc3)nnc2SCC(=O)Nc2ccccc2Cl)cc1,1420,> 10000
Cc1ccc(-n2c(C)nnc2SCC(=O)Nc2ccncn2)cc1,> 10000,> 10000
Cc1ccc(-n2c(C)nnc2SCC(=O)Nc2ccccc2Cl)cc1,3,> 10000
Cc1ccc(-n2c(C)nnc2SCC(=O)Nc2ccc(Cl)cc2Cl)cc1,20,> 10000
COc1ccc(-n2c(C)nnc2SCC(=O)Nc2ccccc2Cl)cc1,79,> 10000
Cc1nnc(SCC(=O)Nc2ccccc2Cl)n1C,> 10000,> 10000
Cc1nnc(SCC(=O)Nc2ccccc2Cl)n1-c1ccccc1,310,> 10000
Cc1ccc(-n2c(C)nnc2SCC(=O)N2CCOCC2)cc1,> 10000,> 10000
COC(=O)c1ccccc1NC(=O)CSc1nnc(C)n1-c1ccc(C)cc1,614,> 10000
Cc1ccc(-n2c(C)nnc2SCC(=O)Nc2cccc(C(F)(F)F)c2)cc1,2870,> 10000
Cc1ccc(-n2c(C)nnc2SCC(=O)N(C)c2ccccc2Cl)cc1,> 10000,> 10000
Cc1ccc(-n2c(C)nnc2SCC(=O)Nc2ccccc2[N+](=O)[O-])cc1,1,> 10000
"O=C1Nc2ccc(Cl)cc2C(C#CC2CC2)(C(F)(F)F)O1 (single isomer, unassigned) [EFAVIRENZ]",–,10000
Cc1ccnc2c1NC(=O)c1cccnc1N2C1CC1 [NEVIRAPINE],–,> 10000

# Test system: Human immunodeficiency virus 1
# Experiment: Antiviral activity against HIV1 NNTRI resistant L100I mutant
# Type: functional, organism-based
row,SMILES,EC50 [nM]
1,COc1ccccc1-n1c(C)nnc1SCC(=O)Nc1ccccc1Cl,100
2,Cc1ccc(-n2c(C)nnc2SCC(=O)Nc2cc(Cl)ccc2Cl)cc1,835
3,Cc1ccc(-n2c(C)nnc2SCC(=O)Nc2ccccc2F)cc1,1380
4,COc1cccc(NC(=O)CSc2nnc(C)n2-c2ccc(C)cc2)c1,31
5,Cc1ccc(-n2c(C)nnc2SCC(=O)Nc2ccccc2C(F)(F)F)cc1,488
6,Cc1nnc(SCC(=O)Nc2ccccc2Cl)n1-c1cccc2c1OCCO2,170
7,Cc1ccc(-n2c(C)nnc2SCC(=O)Nc2ccc(Cl)cc2Cl)cc1,186
8,COc1ccc(-n2c(C)nnc2SCC(=O)Nc2ccccc2Cl)cc1,1230
9,"O=C1Nc2ccc(Cl)cc2C(C#CC2CC2)(C(F)(F)F)O1 (single isomer, unassigned) [EFAVIRENZ]",13

# Test system: Human immunodeficiency virus 1
# Experiment: Antiviral activity against HIV1 NNTRI resistant Y188L mutant
# Type: functional, organism-based
row,SMILES,EC50 [nM]
1,COc1ccccc1-n1c(C)nnc1SCC(=O)Nc1ccccc1Cl,> 1650
2,Cc1ccc(-n2c(C)nnc2SCC(=O)Nc2cc(Cl)ccc2Cl)cc1,> 10000
3,Cc1ccc(-n2c(C)nnc2SCC(=O)Nc2ccccc2F)cc1,> 10000
4,COc1cccc(NC(=O)CSc2nnc(C)n2-c2ccc(C)cc2)c1,2190
5,Cc1ccc(-n2c(C)nnc2SCC(=O)Nc2ccccc2C(F)(F)F)cc1,> 10000
6,Cc1nnc(SCC(=O)Nc2ccccc2Cl)n1-c1cccc2c1OCCO2,> 3330
7,Cc1ccc(-n2c(C)nnc2SCC(=O)Nc2ccccc2Cl)cc1,4310
8,Cc1ccc(-n2c(C)nnc2SCC(=O)Nc2ccc(Cl)cc2Cl)cc1,> 3330
9,COc1ccc(-n2c(C)nnc2SCC(=O)Nc2ccccc2Cl)cc1,> 3330
10,Cc1ccc(-n2c(C)nnc2SCC(=O)Nc2ccccc2[N+](=O)[O-])cc1,3600
11,Cc1ccnc2c1NC(=O)c1cccnc1N2C1CC1 [NEVIRAPINE],> 10000

# Test system: Human immunodeficiency virus 1
# Experiment: Antiviral activity against HIV1 NNTRI resistant Y181C mutant
# Type: functional, organism-based
row,SMILES,EC50 [nM]
1,COc1ccccc1-n1c(C)nnc1SCC(=O)Nc1ccccc1Cl,1050
2,Cc1ccc(-n2c(C)nnc2SCC(=O)Nc2cc(Cl)ccc2Cl)cc1,769
3,Cc1ccc(-n2c(C)nnc2SCC(=O)Nc2ccccc2F)cc1,4030
4,COc1cccc(NC(=O)CSc2nnc(C)n2-c2ccc(C)cc2)c1,161
5,Cc1ccc(-n2c(C)nnc2SCC(=O)Nc2ccccc2C(F)(F)F)cc1,1380
6,Cc1nnc(SCC(=O)Nc2ccccc2Cl)n1-c1cccc2c1OCCO2,219
7,Cc1ccc(-n2c(C)nnc2SCC(=O)Nc2ccccc2Cl)cc1,23
8,Cc1ccc(-n2c(C)nnc2SCC(=O)Nc2ccc(Cl)cc2Cl)cc1,440
9,COc1ccc(-n2c(C)nnc2SCC(=O)Nc2ccccc2Cl)cc1,1430
10,Cc1ccc(-n2c(C)nnc2SCC(=O)Nc2ccccc2[N+](=O)[O-])cc1,16
11,Cc1ccnc2c1NC(=O)c1cccnc1N2C1CC1 [NEVIRAPINE],> 10000

# Test system: Human immunodeficiency virus 1
# Experiment: Antiviral activity against HIV1 NNTRI resistant K103N mutant
# Type: functional, organism-based
row,SMILES,EC50 [nM]
1,COc1ccccc1-n1c(C)nnc1SCC(=O)Nc1ccccc1Cl,1120
2,Cc1ccc(-n2c(C)nnc2SCC(=O)Nc2cc(Cl)ccc2Cl)cc1,1040
3,Cc1ccc(-n2c(C)nnc2SCC(=O)Nc2ccccc2F)cc1,3270
4,COc1cccc(NC(=O)CSc2nnc(C)n2-c2ccc(C)cc2)c1,82
5,Cc1ccc(-n2c(C)nnc2SCC(=O)Nc2ccccc2C(F)(F)F)cc1,1510
6,Cc1nnc(SCC(=O)Nc2ccccc2Cl)n1-c1cccc2c1OCCO2,565
7,Cc1ccc(-n2c(C)nnc2SCC(=O)Nc2ccccc2Cl)cc1,65
8,Cc1ccc(-n2c(C)nnc2SCC(=O)Nc2ccc(Cl)cc2Cl)cc1,577
9,COc1ccc(-n2c(C)nnc2SCC(=O)Nc2ccccc2Cl)cc1,913
10,Cc1ccc(-n2c(C)nnc2SCC(=O)Nc2ccccc2[N+](=O)[O-])cc1,6
11,"O=C1Nc2ccc(Cl)cc2C(C#CC2CC2)(C(F)(F)F)O1 (single isomer, unassigned) [EFAVIRENZ]",19

# Test system: Human immunodeficiency virus 1
# Experiment: Antiviral activity against HIV1 NNTRI resistant K103N/L100I mutant
# Type: functional, organism-based
row,SMILES,EC50 [nM]
1,Cc1ccc(-n2c(C)nnc2SCC(=O)Nc2ccccc2Cl)cc1,182
2,Cc1ccc(-n2c(C)nnc2SCC(=O)Nc2ccccc2[N+](=O)[O-])cc1,24
